From patent US20240124520A1, “N-ACYLATED HISTIDINE DIPEPTIDES AS ANTICANCER AGENTS” (THE BOARD OF TRUSTEES OF THE LELAND STANFORD JUNIOR …, priority 2019, published 2024)
Non-standard residues stand in square brackets, D forms with d. Residues, ends and D or L forms follow the SMILES beside them. *: point of attachment. Palmitoyl = CCCCCCCCCCCCCCCC(=O)*

Columns and labels:
Type in all cases: cell-based
[1] = system: SK-N-SH human neuroblastoma cells; experiment: Cell Titer Blue in vitro cell viability assay, SK-N-SH; conditions: 72 h, SK-N-SH (DMEM), 3 days at 37° C.
Description: (§1) FIG. 15: Dose Response curve for MBC0179 with SK—N—SH cells. Compound MBC0179 was incubated with SK—N—SH human neuroblastoma cells at the indicated concentrations for 3 days at 37° C. prior to Cell Titer Blue fluorescence-based cell viability assay. Normalized cell viability data, expressed as a percentage, are averaged from three biological replicates and standard error represented by error bars for each averaged data point (empty squares). The compound concentrations are represented on log scale on the x-axis in μM units. Data were analyzed using free software called DrFit, as described in Nature Scientific Reports, Article number: 14701, (2015). […]
(§2) The Cell Titer Blue reagent (available from Promega, Inc.) is a buffered solution containing resazurin, a compound that is converted to resorufin, a detectable fluorescent product, by metabolically active cells. The fluorescence intensity of resorufin product therefore serves as a proportional measure of the number of viable cells, permitting changes in cell viability within cancer or other cell lines to be monitored in response to the addition of cytotoxic or cytostatic agents. […] Metastases to the lungs may be conveniently quantified by a well-established clonogenic assay. […]

[2] = system: MDA-MB-468 triple-negative human breast cancer cells; experiment: Cell Titer Blue in vitro cell viability assay, MDA-MB-468; conditions: 72 h, MDA-MB-468 (DMEM), 3 days at 37° C.
Description: FIG. 9: Dose Response curve for MBC0179 with MDA-MB-468 cells. Compound MBC0179 was incubated with MDA-MB-468 triple-negative human breast cancer cells at the indicated concentrations for 3 days at 37° C. prior to Cell Titer Blue fluorescence-based cell viability assay. Normalized cell viability data, expressed as a percentage, are averaged from three biological replicates and standard error represented by error bars for each averaged data point (empty squares). The compound concentrations are represented on log scale on the x-axis in μM units. Data were analyzed using free software called DrFit, as described in Nature Scientific Reports, Article number: 14701, (2015). […]
as §2

[3] = system: K-562 human chronic myelogenous leukemia cells; experiment: Cell Titer Blue in vitro cell viability assay, K-562; conditions: 72 h, K562 (DMEM), in suspension, 3 days at 37° C.
Description: as §1, with “11:” for “15:”, “K-562” for “SK—N—SH”, “chronic myelogenous leukemia cells, a non-adherent cell line,” for “neuroblastoma cells”
as §2

[4] = system: MDA-MB-231 triple-negative human breast cancer cells; experiment: Cell Titer Blue in vitro cell viability assay, MDA-MB-231; conditions: MDA-MB-231, 72 h, 3 days at 37° C.
Description: FIG. 1: Dose Response curve for MBC017 with MDA-MB-231 cells. Compound MBC017 was incubated with MDA-MB-231 triple-negative human breast cancer cells at the indicated concentrations for 3 days at 37° C. prior to Cell Titer Blue fluorescence-based cell viability assay. Normalized cell viability data, expressed as a percentage, are averaged from three biological replicates and standard error represented by error bars for each averaged data point (empty squares). The compound concentrations are represented on log scale on the x-axis in μM units. Data were analyzed using free software called DrFit, as described in Nature Scientific Reports, Article number: 14701, (2015). […] The data were not sufficient to calculate an accurate IC50 value.
A commercially available in vitro cell viability reagent (Cell Titer Blue) was employed to determine the anti-cancer effectiveness of several compounds (1-5) against multiple cancer and healthy tissue-derived cell lines. Cell lines are summarized in Table 2, as follows: All cell lines and information on each cell lines origins and characteristics were procured from ATCC (www.atcc.org). Common names and ATCC product IDs are shown in the first (leftmost) column. From the left, the second and third columns describe the organism and tissue from which each cell line was isolated. The fourth and fifth columns indicate the cell type and disease status (e.g. normal versus carcinoma) of each cell line. The sixth column provides a summary of what compounds were tested against each cell line using an in vitro cell viability assay. Peptide name IDs are shown in parenthesis for each compound, numbered 1 through 5.
The Cell Titer Blue reagent (available from Promega, Inc.) is a buffered solution containing resazurin, a compound that is converted to resorufin, a detectable fluorescent product, by metabolically active cells. The fluorescence intensity of resorufin product therefore serves as a proportional measure of the number of viable cells, permitting changes in cell viability within cancer or other cell lines to be monitored in response to the addition of cytotoxic or cytostatic agents. Various human breast tissue-derived cell lines are widely employed to study the effects of potential therapeutics against breast cancer in vitro. Human breast cancer cell lines may be subdivided into groups based upon hormone receptor status, i.e. estrogen, progesterone and human epidermal growth factor positive or negative. A healthy human breast tissue-derived cell line, hTERT-HME1 may be used to determine the effect of therapeutic agents on healthy human breast tissue in vitro. Additionally, a highly metastatic and aggressive murine (mouse) breast cancer cell line, 4T1, has been extensively used to monitor breast cancer metastasis from the mammary fat pads of mice to the lungs in order to systematically survey the anti-metastatic effectiveness of anti-cancer therapeutics in an in vivo animal model. Metastases to the lungs may be conveniently quantified by a well-established clonogenic assay. Other human tissue-derived model cell lines, representative of various cancers, other than breast cancer, may be utilized to assess the potential of anti-cancer compounds in vitro. These include, K-562 (chronic myelogenous leukemia), HEPG2 (hepatocellular carcinoma), OVCAR-3 (ovarian adenocarcinoma), SK—N—SH (neuroblastoma) and A549 (lung carcinoma). Several compounds were assayed in vitro using the Cell Titer Blue viability assay against an array of cancer cell lines of both human and murine origin plus one healthy human breast cell line (Table 1, FIGS. 1-16). A mouse 4T1 metastasis study was performed to determine the anti-metastatic potential of one compound, MBC0179 (FIG. 17).
Dimethyl sulfoxide (DMSO), Cremophor EL, methylene blue, 100× antibiotic/antimycotic solution, collagenase (Type IV), DNAse I and 6-thioguanine were available from Millipore-Sigma. […]

[5] = system: HEPG2 human liver carcinoma cells; experiment: Cell Titer Blue in vitro cell viability assay, HEPG2; conditions: 72 h, HEPG2 (DMEM), 3 days at 37° C.
Description: as §1, with “12:” for “15:”, “HEPG2” for “SK—N—SH”, “liver carcinoma” for “neuroblastoma”
as §2

- IC50 [1]: 35 µM
- IC50 [2]: 15.7 µM
- IC50 [3]: 6.11 µM
- IC50 ([4]; MDA-MB-231 (DMEM)): 14.7 µM
- IC50 ([4]; MDA-MB-231 (MEGM)): 8.88 µM
- IC50 [5]: 24.9 µM
Structure (SMILES): CCCCCCCCCCCCCCCC(=O)N[C@H](Cc1c[nH]cn1)C(=O)N[C@@H](C(=O)OCC)C(C)C [Compound 5, N-[N-(1-oxohexadecyl)-D-histidyl]-D-valine ethyl ester] (Palmitoyl-[dH]-[dV]-OEt)
